PMC6399351, “Cationic Intrinsically Disordered Antimicrobial Peptides (CIDAMPs) Represent a New Paradigm of Innate Defense with a Potential for Novel Anti-Infectives” (Scientific Reports, 2019)
Like-named read-outs stand apart in the source and are kept apart here. Square brackets hold non-standard residues; d marks the D form. Ends that are not written are not given here. Peptide text beside a SMILES is read from it. * marks the point of attachment. Palmitoyl = CCCCCCCCCCCCCCCC(=O)*

Tests used:
P. aeruginosa ATCC 10145 = details: CFU assay, 10 mM NaP
S. aureus ATCC 6538 = details: CFU assay, 10 mM NaP, pH 5.5, 0.25% glucose

Molecule | LD90 (P. aeruginosa ATCC 10145; pH 5.5, 0.25% glucose) [µg/mL] | LD100 (P. aeruginosa ATCC 10145; pH 5.5, 0.25% glucose) [µg/mL] | LD100 (P. aeruginosa ATCC 10145; pH 5.5, 1% TSB) [µg/mL] | LD90 (P. aeruginosa ATCC 10145; pH 5.5, 1% TSB) [µg/mL] | further results
HTHSGHTHSQARSQHGESESTVHKR [FLG-21894-1918] | 0.038 | 0.3 | – | – | –
HTHSGHTHGQARSQHGESESIVHER [FLG-21742-1766] | 0.038 | 0.15 | – | – | –
HAHSGHGQSTQRGSRTAGRRGSGH [FLG-22082-2105] | < 0.038 | 0.075 | – | – | –
GRHGSGLGHSSSHGQH [HR 1-25] | 0.3 | 4.7 | – | – | –
GRHGSGSGQSSSYGPYGSGSGWSSSRGPY [HRNR1952-1980] | – | – | > 300 | – | –
TAGRRGSGH [FLG-22097-2105] | > 300 | > 300 | – | – | –
CCCCCCCCCCCCCCCC(=O)SC[C@H](NC(=O)[C@H](CO)NC(=O)[C@H](CO)NC(=O)[C@H](CO)NC(=O)[C@H](CCC(N)=O)NC(=O)CNC(=O)[C@H](CO)NC(=O)[C@@H](NC(=O)[C@H](CO)NC(=O)CNC(=O)[C@H](Cc1c[nH]cn1)NC(=O)[C@H](CCC(N)=O)NC(=O)CNC(=O)[C@H](Cc1c[nH]cn1)NC(=O)[C@@H](NC(=O)[C@H](CO)NC(=O)[C@H](CO)NC(=O)[C@H](Cc1c[nH]cn1)NC(=O)CNC(=O)[C@H](CO)NC(=O)[C@H](CO)NC(=O)[C@H](CO)NC(=O)CNC(=O)[C@H](Cc1c[nH]cn1)NC(=O)[C@H](CCC(N)=O)NC(=O)CN)[C@@H](C)O)[C@@H](C)O)C(N)=O [S-Pal-HRNR598–623] (H-GQHGSSSGHSSTHGQHGSTSGQSSSC(Palmitoyl)-NH2; N-terminus assumed) | – | – | – | – | LD90 (S. aureus ATCC 6538): 2.35 µg/mL; LD100 (S. aureus ATCC 6538): > 150 µg/mL
RGSGSGHQGHSSSHGLGSGHRG [rev-HR 1-18] | < 0.019 | 0.3 | – | – | –
GSGSRQSPSYGR [HR 2-8] | – | – | > 300 | 37.5 | –
GSGSRQSPSRGRHGSGSGR [HR 2-4R] | – | – | > 300 | – | –
HGQSTQRGSRTAGRRGSGH [FLG-22087-2105] | 0.075 | 1.18 | – | – | –
QGSGSGQSPGHSQRGSGSRQSPSY [HR 2-1] | – | – | > 300 | > 300 | –
GRHGGGGGHGGGHGGHGGGGGR [HR 1-18,L-G/Q-G/6S-6G] | – | 0.15 | – | – | –
GRHGSGGGHSSSHGGHGSGSGR [HR 1-18,L-G/Q-G] | – | 0.15 | – | – | –
SGQSSRGER [HR 1-3] | – | – | > 300 | > 300 | –
GSGSRQSPSY [HR 2-2] | – | – | > 300 | > 300 | –
HGSGSGR [HR 2-9] | – | – | > 300 | > 300 | –
QSPSYGR [HR 2-6] | – | – | > 300 | > 300 | –
SSSSR [HR 1-9] | – | – | > 300 | – | –
QSPSYGRHGSGSGR [HR 2-5] | – | – | > 300 | > 300 | –
LGHSSSHGQHGSGSGRSSSRGPYESRLGH [HR 1-36] | 0.15 | 2.35 | – | – | –

Molecule | LD90 (P. aeruginosa ATCC 10145; pH 5.5, 0.25% glucose) [µg/mL] | LD100 (P. aeruginosa ATCC 10145; pH 5.5, 0.25% glucose) [µg/mL] | LD100 (P. aeruginosa ATCC 10145; pH 5.5, 1% TSB) [µg/mL] | LD90 (P. aeruginosa ATCC 10145; pH 5.5, 1% TSB) [µg/mL] | further results
GSGSRQSPSYGRHGSGSGRSSSSGQH [HR 2-11] | – | – | > 300 | 37.5 | –
GSGSRQSPSHGRHGSGSGR [HR 2-4H] | – | – | > 300 | 75 | –
CC(C)C[C@@H](NC(=O)CNC(=O)[C@@H](CO)NC(=O)CNC(=O)[C@@H](Cc1c[nH]cn1)NC(=O)[C@@H](CCCNC(=N)N)NC(=O)CN)C(=O)NCC(=O)N[C@H](Cc1c[nH]cn1)C(=O)N[C@H](CO)C(=O)N[C@H](CO)C(=O)N[C@H](CO)C(=O)N[C@H](Cc1c[nH]cn1)C(=O)NCC(=O)N[C@H](CCC(N)=O)C(=O)N[C@H](Cc1c[nH]cn1)C(=O)NCC(=O)N[C@H](CO)C(=O)NCC(=O)N[C@H](CO)C(=O)NCC(=O)N[C@H](CCCNC(=N)N)C(=O)O [(D)HR 1-18] (H-G[dR][dH]G[dS]G[dL]G[dH][dS][dS][dS][dH]G[dQ][dH]G[dS]G[dS]G[dR]-OH; N-terminus and C-terminus assumed) | 0.038 | 0.3 | – | – | –
HGSSSGSSSHYGQHGSGSR [HR 1-4] | – | – | > 300 | 150 | –
GSGSRQSPSYGRQGSGSGR [HR 2-4Q] | – | – | > 300 | > 300 | –
GRHGSGSGHSSSHGQHGSGSGR [HRNR2186-2207] | – | 4.7 to 9.37 | – | – | –
RQSPSYGRHGSGSGR [HR 2-14] | – | – | > 300 | 300 | –
SLSSGHGSGHGHQRGGHRSGSG [scr-HR 1-18] | < 0.019 | 0.15 | – | – | –
GSGSRQSSGHGRQGSGSGQ [HR 1-16] | – | – | > 300 | > 300 | –
THEHEQSHQRRDRQTHEDKQNRQR [RPTN747-770] | 0.3 | 150 | – | – | –
HAHSGHGQSTQRGSR [FLG-22082-2096] | 0.15 | 1.18 | – | – | –
HTHSGHTHGQAGSHYPESGSSVHER [FLG-21969-1993] | 0.038 | 0.3 | – | – | –
HGSGLGHSSSHGQHGSGSGR [HR 1-8] | 4.7 | > 300 | > 300 | – | –
GGHGSGLGHSSSHGQHGSGSGRSSSRGPY [HR 1-17R1-G] | 0.038 | 0.3 | – | – | –
HAHYGYGQSTQRGSRTTGRRGSGH [FLG-22232-2255] | 0.075 | 0.59 | – | – | –
GRHGSGLGHSSSHGQHGSGSGGSSSRGPY [HR 1-17R2-G] | 0.038 | 0.15 | – | – | –
QSPSY [HR 2-3] | – | – | > 300 | > 300 | –
GSGSRQSSSYGRHGSGSGR [HR 2-4S] | – | – | > 300 | 150 | –
HGSRSGQSSRGERHGSSSGSSSH [HR 1-11] | 0.075 | – | – | – | –
SRQSPSYGRHGSGSGR [HR 2-13] | – | – | > 300 | > 300 | –
HTHSGHTHGQSGSQHGESESIIHDR [FLG-21515-1539] | 0.075 | 0.59 | – | – | –

Molecule | LD90 (P. aeruginosa ATCC 10145; pH 5.5, 0.25% glucose) [µg/mL] | LD100 (P. aeruginosa ATCC 10145; pH 5.5, 0.25% glucose) [µg/mL] | LD100 (P. aeruginosa ATCC 10145; pH 5.5, 1% TSB) [µg/mL] | LD90 (P. aeruginosa ATCC 10145; pH 5.5, 1% TSB) [µg/mL] | further results
GSRTAGRRGSGH [FLG-22094-2105] | – | > 300 | – | – | –
GRGGSGLGGSSSGGQGGSGSGRSSSRGPY [HR 1-174H-4G] | 75 | > 300 | – | – | –
SRQSPSYGRHGSGR [HR 2-15] | – | – | > 300 | 75 | –
GRHGSGSGQSSSYGPYRSGSGWSSSRGPY [HRNR1013-1041] | – | – | > 300 | – | –
GSRQSPSYGRHGSGSGR [HR 2-12] | – | – | > 300 | > 300 | –
GRHGSGLGHSSSHGQHGSGSGRSSSGGPY [HR 1-17R3-G] | 0.038 | 0.15 to 0.3 | – | – | –
SSSRGPY [HR 1-10] | – | – | > 300 | > 300 | –
QSSGHGR [HR 1-5] | – | – | > 300 | > 300 | –
GSGSRQSLSYGRHGSGSGR [HR 2-4L] | – | – | > 300 | 75 | –
GRHGSGSGQSSSYSPYGSGSGWSSSRGPY [HRNR2422-2450] | – | – | > 300 | 2.35 | –
QGSGSGQSPSR [HR 1-6] | – | – | > 300 | > 300 | –
GRHGSGSGQSSSYSPYGSGSGWSSSR [HRNR2422-2447] | – | – | > 300 | – | –
QGSGSGQSPSRGR [HR 1-7] | – | – | > 300 | > 300 | –
HAHSGHGQSTQR [FLG-22082-2093] | 0.15 | 2.35 | – | – | –
SGQSSR [HR 1-2] | – | – | > 300 | > 300 | –
GSGSRQSPSYGRHGSGSGR [HR 2-4] | – | – | > 300 | > 300 | –
SQHGSGSGHSSGYGQHGSR [HR 1-1] | – | – | > 300 | > 300 | –
GRHGSGLGHSSSH [HR 1-37] | 9.38 | > 300 | – | – | –
HTHSGHAHGQAGSQHGESGSSVHER [FLG-22044-2068] | 0.038 | 0.3 | – | – | –
HSSSHGQHGSGSGR [HR 1-38] | – | > 300 | – | – | –
HSQRGSGSRQSPSYGRH [HR 2-16] | – | 37.5 | – | – | –
